Experimental data: patent US20160022751A1, “NOVEL COMPOSITION FOR TREATING ALZHEIMER'S DISEASE AND IMPROVING COGNITIVE FUNCTION OF ALZHEIMER'S PATIENTS” (GANGNEUNG-WONJU NATIONAL UNIVERSITY INDUSTRY ACADEMY …, priority 2014, published 2016)

Assays:
[1] = system: ChAT; assay: ChAT mRNA expression in N2a cells (RT-PCR); type: cell-based, mouse; settings: for expression of ChAT mRNA: single ginsenoside (FIG. 7A); for expression of ChAT, dose dependence: various concentrations (FIG. 7C)
From the text: (§1) The present inventor reported that ChAT overexpressing human neural stem cells restored cognition with an increase of ACh levels in rat model (Park et al., Exp. Neurol., 234: 521-526, 2012). This implies that the increase of the ChAT level in cholinergic neurons plays a critical role in cognition enhancement and thus the cholinergic gene locus “VAChT/ChAT” can be a putative target for therapeutic approaches on AD. Thus the present inventor prepared transfected Neuro-2a (N2a) cells that over-express the human ChAT and APP (designated as “N2a.hChAT” and “N2a.hAPPswe”, respectively, FIG. 6) and the N2a.hChAT and N2a.hAPPswe cells were treated with the faction groups 1 to 5 isolated in the Example 3 at a centration of 50 μg/ml. Neuro-2a mouse neuroblastoma cells (Korean Cell Line Bank, Korea) were grown in DMEM supplemented with 10% fetal bovine serum (FBS), 100 U/m penicillin, and 100 μg/ml streptomycin (Invitrogen, USA) under 5% CO2 at 37° C. in tissue culture flasks. For all experiments, cells were grown to greater than 90% confluency and subjected to no more than 20 cell passages. The medium was changed every 2-3 days. Subconfluent cells were harvested and seeded at a density of 5×10^5 cells or 5×10^6 cells in poly-L-lysine-coated 35 mm or 60 mm culture plates. To recover the cells that are not completely saturated for analysis, poly-L-lysine coated 35 mm or 60 mm culture was seeded at a concentration of 5×10^5 or 5×10^6 cells on the plates. The extent of expression of hChAT and APP in the N2a.hChAT and N2a.hAAPswe cells treated with the faction groups 1 to 5 was quantified with RT-PCR using primers described in the below Table 2. At this time, beta-actin was used as an internal control.
(§2) Specifically, total RNA extracts from N2a cells were prepared using the Trizol method (Invitrogen, USA) and cDNA was synthesized from RNA by reverse transcription of 1 μg of total RNA using a reverse transcription system (Improm-II, Promega, USA) and oligo dT primers in a total volume of 20 μL. PCR amplification was performed using the primers described in Table 2 (Bioneer, Korea). Quantitative real-time PCR reactions were run on a Rotor-Gene 6000 (Corbett Research, Australia) using SensiMix™ SYBR Hi-ROX Kit (Bioline, U.K.) in 20 μL reaction mixtures. Each real-time-PCR master mix contained 10 μL 2× enzyme master mix, 7.0 μL RNase free water, 1 μL of each primer (10 pM each), and 1 μL diluted template. The PCR was performed with an initial pre-incubation step for 15 min at 95° C., followed by 45 cycles of 95° C. for 15 s, annealing at 52° C. for 15 s, and extension at 72° C. for 10 s. Melting curve analysis was used to confirm formation of the expected PCR product, and products from all assays were additionally tested with 1.2% agarose gel electrophoresis to confirm the correct lengths. An inter-run calibrator was used, and a standard curve was created for each gene to obtain PCR efficiencies. Relative sample expression levels were calculated using Rotor-Gene 6000 Series Software 1.7, and were expressed relative to β-actin and corrected for between-run variability. Data for the experimental samples were expressed as a fold unit the internal control gene.
(§3) In order to examine whether five ginsenosides affect the expression of ChAT related to the synthesis of acetylcholine and VAChT controlling extracellular secretion of acetylcholine, the present inventor analyzed the expression level of ChAT and VAChT after treating the five ginsenosides to N2a […] cells, respectively.

[2] = system: TrkA; assay: TrkA gene expression in N2a cells (quantitative RT-PCR); type: cell-based, mouse; settings: 24 h, Rd 5 μg/ml, Re 5 μg/ml or Rd/Re each 2.5 μg/ml (FIG. 11)
Experimental: On the other hand, the present inventor investigates the expression level of TrkA gene after treating ginsenoside Rd (5 μg/ml), Re (5 μg/ml) or mixture of Rd/Re (each 2.5 μg/ml) to N2a cells for 24 h, using quantitative RT-PCR method, similar to the method described in the Example 4 (FIG. 11).

[3] = system: VAChT; assay: VAChT mRNA expression in N2a cells (RT-PCR); type: cell-based, mouse; settings: for expression of VAChT mRNA: single ginsenoside (FIG. 7B); for expression of VAChT, dose dependence: various concentrations (FIG. 7D)
From the text: as §1, §2, §3

[4] = HPLC analysis of ginsenosides transported into the brain after oral administration; type: in vivo, BALB/c mice; settings: mice, oral mixture of Rb1, Re, Rd, Rg1, Rg3 10 mg/kg each, brain taken after six hours, HPLC (FIG. 22)
Experimental: Thus, the present inventor performed an HPLC analysis on brain tissue extract obtained from experimental animals administrated with mixture of five ginsenosides (Rb1, Rd, Re, Rg1 and Rg3) which are contained in RgC, in order to investigate whether RgC or ginsenosides Rd, Re and Rg3 can pass through the BBB. For the HPLC analysis of ginsenosides transported into the brain, a mixture of Rb1, Re, Rd, Rg1, and Rg3 (10 mg/kg each) was administered to ten-week-old male BALB/c mice (Central Lab. Animals, Korea). Brain tissues were isolated six hours after the oral administration of the ginsenosides after the complete perfusion with 0.9% saline solution, mechanically disrupted using a TissueLyser (Qiagen, Crawley, U.K.), and centrifuged for 10 min at 13500 rpm. The supernatant (1 mL) was then mixed with n-butanol (0.4 mL) and the butanol layer was completely evaporated and dried for HPLC analysis. The chromatography was performed by the Agilent 1100 series HPLC system (Agilent Technologies, USA) equipped with a vacuum degasser, quaternary pump, and ultraviolet (UV) detector. Chromatographic separation was performed on a Zorbax SB-Aq C18 column (4.6150 mm, 5 μm) and a mixture of solvent A (water) and solvent B (acetonitrile) flowed at a rate of 1 mL/min. The gradient elution program was initiated with 79% solvent A and 21% solvent B, 0-10 min (21-22% B), 10-11 min (22-23% B), 11-29 min (23-24% B), 29-34 min (24-30% B), 34-44 min (30-32% B), 44-49 min (32-50% B), 49-64 min (50-65% B), 64-78 min (65-100% B), and equilibrated with the initial gradient program (21% B) for 10 min prior to the next injection. The column temperature was set at 35° C., the volume of the sample injection was 10 μL, and detection wavelength was set at 203 nm. The animal experiments were approved by the Gangneung-Wonju National University Animal Care and Use Committee (Approval Number: GWNU-2013-23), and all procedures were conducted in accordance with the Guide for Care and Use of Laboratory Animals published by the National Institute of Health.

[5] = system: CHT1; assay: CHT1 expression in N2a cells; type: cell-based, mouse; settings: N2a cells (FIG. 7E)
Experimental: as §2, with “An inter-run calibrator was used, and a standard curve was created for each gene to obtain PCR efficiencies.” left out, “gene. […]” for “gene.”

Row | SMILES | expression of ChAT mRNA [1] | expression of ChAT, dose dependence [1] | expression of TrkA [2] | expression of VAChT mRNA [3] | expression of VAChT, dose dependence [3] | penetration into the brain (passage through BBB) [4] | expression of CHT1 [5]
1 | CC(C)=CCC[C@](C)(O[C@@H]1O[C@H](CO)[C@@H](O)[C@H](O)[C@H]1O)[C@H]1CC[C@]2(C)[C@@H]1[C@H](O)C[C@@H]1[C@@]3(C)CC[C@H](O[C@@H]4O[C@H](CO)[C@@H](O)[C@H](O)[C@H]4O[C@@H]4O[C@H](CO)[C@@H](O)[C@H](O)[C@H]4O)C(C)(C)[C@@H]3CC[C@]12C [ginsenoside Rd] | significantly increased | increased expression of ChAT and VAChT in a dose-dependent manner | increased the expression of TrkA in a dose-dependent manner | significantly increased | increased expression of ChAT and VAChT in a dose-dependent manner | penetrated into the brain | increased
2 | CC(C)=CCC[C@](C)(O[C@@H]1O[C@H](CO)[C@@H](O)[C@H](O)[C@H]1O)[C@H]1CC[C@]2(C)[C@@H]1[C@H](O)C[C@@H]1[C@@]3(C)CC[C@H](O)C(C)(C)[C@@H]3[C@@H](O[C@@H]3O[C@H](CO)[C@@H](O)[C@H](O)[C@H]3O[C@@H]3O[C@@H](C)[C@H](O)[C@@H](O)[C@H]3O)C[C@]12C [ginsenoside Re] | significantly increased | increased expression of ChAT and VAChT in a dose-dependent manner | increased the expression of TrkA in a dose-dependent manner | significantly increased | increased expression of ChAT and VAChT in a dose-dependent manner | penetrated into the brain | increased
3 | CC(C)=CCC[C@](C)(O)[C@H]1CC[C@]2(C)[C@@H]1[C@H](O)C[C@@H]1[C@@]3(C)CC[C@H](O[C@@H]4O[C@H](CO)[C@@H](O)[C@H](O)[C@H]4O[C@@H]4O[C@H](CO)[C@@H](O)[C@H](O)[C@H]4O)C(C)(C)[C@@H]3CC[C@]12C [ginsenoside Rg3] | no significant increase | – | – | no significant increase | – | penetrated into the brain | –
